Test results taken from patent US20170333591A9, “ABSORBENT ARTICLE COMPRISING MALODOR REDUCTION COMPOSITIONS” (The Procter & Gamble Company, priority 2014, published 2017).

Experiment: Log of liquid dish neat product liquid-air partition coefficient
Format: physicochemical
Details: for Log of liquid dish neat product liquid-air partition coefficient (Comment Code K/L): code letter within the Comment Code cell

Row | Compound | Log of liquid dish neat product liquid-air partition coefficient (Comment Code K/L) | Comment Code: Log of liquid dish neat product liquid-air partition coefficient
1 | CC=Cc1ccc(OC)c(OC)c1 [Material 108] | K (Log of liquid dish neat product liquid-air partition coefficient greater than or equal to 7) | 
2 | CCCCCCCCCCCCCCCC(=O)OC [Material 109] | K (Log of liquid dish neat product liquid-air partition coefficient greater than or equal to 7) | 
3 | C=CCc1ccc(OC)c(OC)c1 [Material 110] | K (Log of liquid dish neat product liquid-air partition coefficient greater than or equal to 7) | 
4 | CCC=CCC1C(=O)CCC1CC(=O)OC (stereo not drawn) [Material 112] | K (Log of liquid dish neat product liquid-air partition coefficient greater than or equal to 7) | 
5 | CCCCCC1C(=O)CCC1CC(=O)OC (stereo not drawn) [Material 113] | K (Log of liquid dish neat product liquid-air partition coefficient greater than or equal to 7) | 
6 | Cc1cccc(Oc2ccccc2)c1 [Material 114] | K (Log of liquid dish neat product liquid-air partition coefficient greater than or equal to 7) | 
7 | CCOc1cc(COC)ccc1O [Material 115] |  | K (Log of liquid dish neat product liquid-air partition coefficient greater than or equal to 7)
8 | COC(=O)C=Cc1ccccc1 [Material 117] | K (Log of liquid dish neat product liquid-air partition coefficient greater than or equal to 7) | 
9 | C=CCc1ccc(OC)cc1 [Material 119] | K (Log of liquid dish neat product liquid-air partition coefficient greater than or equal to 7) | 
10 | CC(=O)c1ccc2ccccc2c1 [Material 120] | K (Log of liquid dish neat product liquid-air partition coefficient greater than or equal to 7) | 
11 | COC(C)(C)CCCC(C)C=O (stereo not drawn) [Material 125] |  | K (Log of liquid dish neat product liquid-air partition coefficient greater than or equal to 7)
12 | COC(C)(C)CCCC(C)CC=O (stereo not drawn) [Material 126] | K (Log of liquid dish neat product liquid-air partition coefficient greater than or equal to 7) | 
13 | CC(C)C1CCC(CO)CC1 (stereo not drawn) [Material 133] |  | K (Log of liquid dish neat product liquid-air partition coefficient greater than or equal to 7)
14 | CC(C=O)Cc1cccc(C(C)(C)C)c1 (stereo not drawn) [Material 134] | K (Log of liquid dish neat product liquid-air partition coefficient greater than or equal to 7) | 
15 | CC(C)=CCCC(C)=CCCc1ccncc1 [Material 135] | K (Log of liquid dish neat product liquid-air partition coefficient greater than or equal to 7) | 
16 | C=CCCCCCCCC=CCC#N [Material 137] | K (Log of liquid dish neat product liquid-air partition coefficient greater than or equal to 7) | 
17 | Cc1cccc(CC(C)(C)CO)c1 [Material 140] | K (Log of liquid dish neat product liquid-air partition coefficient greater than or equal to 7) | 
18 | CC1OC(C)C2Cc3ccccc3C2O1 (stereo not drawn) [Material 141] | K (Log of liquid dish neat product liquid-air partition coefficient greater than or equal to 7) | K (Log of liquid dish neat product liquid-air partition coefficient greater than or equal to 7)
19 | CC1=CC2CC(C=O)C1CC2C(C)C (stereo not drawn) [Material 142] | K (Log of liquid dish neat product liquid-air partition coefficient greater than or equal to 7) | 
20 | CC/C=C\CCC1=CCCC1=O [Material 146] | K (Log of liquid dish neat product liquid-air partition coefficient greater than or equal to 7) | 
21 | C=CC(C)(CCC=C(C)C)OC(=O)C(C)C (stereo not drawn) [Material 149] | K (Log of liquid dish neat product liquid-air partition coefficient greater than or equal to 7) | 
22 | C=CC(C)(CCC=C(C)C)OC=O (stereo not drawn) [Material 150] |  | K (Log of liquid dish neat product liquid-air partition coefficient greater than or equal to 7)
23 | C=CC(C)(CCC=C(C)C)OC(=O)CCC (stereo not drawn) [Material 151] |  | K (Log of liquid dish neat product liquid-air partition coefficient greater than or equal to 7)

Row | Compound | Log of liquid dish neat product liquid-air partition coefficient (Comment Code K/L) | Comment Code: Log of liquid dish neat product liquid-air partition coefficient
24 | C=CC(C)(CCC=C(C)C)OC(C)=O (stereo not drawn) [Material 154] |  | K (Log of liquid dish neat product liquid-air partition coefficient greater than or equal to 7)
25 | C=CC1(C)CCC(C(C)(C)O)O1 (stereo not drawn) [Material 155] | K (Log of liquid dish neat product liquid-air partition coefficient greater than or equal to 7) | 
26 | C=CC1(C)CCC(C(C)(C)O)O1 (stereo not drawn) [Material 156] | K (Log of liquid dish neat product liquid-air partition coefficient greater than or equal to 7) | 
27 | C=CC(C)(O)CCC=C(C)C (stereo not drawn) [Material 157] |  | K (Log of liquid dish neat product liquid-air partition coefficient greater than or equal to 7)
28 | CC/C(C)=C/CC/C(C)=C\C#N [Material 158] | K (Log of liquid dish neat product liquid-air partition coefficient greater than or equal to 7) | 
29 | CC1=CCC(C(C)CC=O)CC1 (stereo not drawn) [Material 159] | K (Log of liquid dish neat product liquid-air partition coefficient greater than or equal to 7) | 
30 | Cc1ccc2c(c1)CC(C)(CO)C2 (stereo not drawn) [Material 161] | K (Log of liquid dish neat product liquid-air partition coefficient greater than or equal to 7) | 
31 | CC(C=O)Cc1ccc(C(C)(C)C)cc1 (stereo not drawn) [Material 162] | K (Log of liquid dish neat product liquid-air partition coefficient greater than or equal to 7) | 
32 | C=C(C)C1CC=C(C)C(O)C1 (stereo not drawn) [Material 170] | K (Log of liquid dish neat product liquid-air partition coefficient greater than or equal to 7) | 
33 | CCCCCCCCCCCCOC(C)=O [Material 175] | K (Log of liquid dish neat product liquid-air partition coefficient greater than or equal to 7) | 
34 | CCCCCCCCCCCC=O [Material 178] | K (Log of liquid dish neat product liquid-air partition coefficient greater than or equal to 7) | 
35 | C=C(OCC)C1C(C)(C)CC(=O)CC1(C)C [Material 182] | K (Log of liquid dish neat product liquid-air partition coefficient greater than or equal to 7) | 
36 | C=C1[C@H]2CC[C@H](CO)[C@@]23CC[C@H](C3)C1(C)C [Material 183] | K (Log of liquid dish neat product liquid-air partition coefficient greater than or equal to 7) | K (Log of liquid dish neat product liquid-air partition coefficient greater than or equal to 7)
37 | CC1(CO)CC1CC1CC2CC2(C)C1(C)C (stereo not drawn) [Material 185] | K (Log of liquid dish neat product liquid-air partition coefficient greater than or equal to 7) | K (Log of liquid dish neat product liquid-air partition coefficient greater than or equal to 7)
38 | CC1OCC(c2ccccc2)O1 (stereo not drawn) [Material 190] | K (Log of liquid dish neat product liquid-air partition coefficient greater than or equal to 7) | 
39 | CC1=CCC(C)C(C)C12C=CC(C)O2 (stereo not drawn) [Material 192] | K (Log of liquid dish neat product liquid-air partition coefficient greater than or equal to 7) | 
40 | CCCCCCCCCCCCCC(=O)OC(C)C [Material 196] | K (Log of liquid dish neat product liquid-air partition coefficient greater than or equal to 7) | 
41 | CCCCCCCCCCCC(=O)OC(C)C [Material 197] | K (Log of liquid dish neat product liquid-air partition coefficient greater than or equal to 7) | 
42 | CC1CCCCCCCCCCCCC(=O)C1 (stereo not drawn) [Material 206] | K (Log of liquid dish neat product liquid-air partition coefficient greater than or equal to 7) | K (Log of liquid dish neat product liquid-air partition coefficient greater than or equal to 7)
43 | CC(C)=CCCC1=CCC(C=O)CC1 (stereo not drawn) [Material 211] | K (Log of liquid dish neat product liquid-air partition coefficient greater than or equal to 7) | 
44 | CC=Cc1ccc(OC(C)=O)c(OC)c1 [Material 213] |  | K (Log of liquid dish neat product liquid-air partition coefficient greater than or equal to 7)
45 | CC=Cc1ccc(O)c(OC)c1 [Material 214] |  | K (Log of liquid dish neat product liquid-air partition coefficient greater than or equal to 7)
46 | CC(=O)[C@@]1(C)CC2=C(CCCC2(C)C)C[C@@H]1C [Material 215] | K (Log of liquid dish neat product liquid-air partition coefficient greater than or equal to 7) | K (Log of liquid dish neat product liquid-air partition coefficient greater than or equal to 7)
